One assay has as its system A. baumannii. The assay can be described thus: MIC in CAMHB, 96-well plate (10^5 to 10^2 CFU/mL in 24 hours). The assay is classed as cell-based, Acinetobacter baumannii. As to the method:
To determine the MIC of polyamine compounds, the protocol described herein was used.
In brief, a 0.5 McFarland of each bacterial isolate was made. A 0.5 McFarland is a measure of turbidity in a liquid sample that contains approximately 1×10̂^8 CFU/mL. The 0.5 McFarland standard was diluted in cation adjusted Mueller Hinton Broth (CAMHB), and […], of broth were added to a well of a 96-well plate. In addition, 50 μL of CAMHB that contained a desired concentration of antimicrobial were also added to the well for a final volume of 100 and a final concentration of approximately 5×10^4 CFU/well (which equated to approximately 5×10^5 CFU/mL). Each well contained a desired amount of polyamine compound in order to experimentally determine the MIC. Each 96-well plate was incubated at 37° C. for 24 hours. The contents of each well were plated on tryptic soy agar (TSA). TSA plates were incubated for 37° C. for 24 hours after which the number of CFU were counted and used to calculate the CFU/mL that remained after exposure to varying concentrations of compound. This procedure was repeated n=8 times for each concentration of antimicrobial.
A 0.5 McFarland of A. baumannii is made. A 0.5 McFarland is a measure of turbidity in a liquid sample that contains approximately 7.5×10^7 CFU/mL. The 0.5 McFarland standard is diluted in CAMHB and 50 μL of broth is added to a well of a 96-well plate. In addition, 50 μL of CAMHB that contains a desired concentration of antimicrobial is added to the well for a final volume of 100 μL and a final concentration of approximately 5×10^4 CFU/well (which equates to approximately 5×10^5 CFU/mL). Each well contains a desired amount of CZ compound in order to experimentally determine the MIC. Each 96-well plate is incubated at 37° C. for 24 hours. The contents of each well is plated on tryptic soy agar (TSA). TSA plates is incubated at 37° C. for 24 hours after which the number of CFUs is counted and used to calculate the CFU/mL that remain after exposure to varying concentrations of compound. This procedure is repeated n=8 times for each concentration of antimicrobial. […]

The next assay has as its system A. baumannii biofilm. Put plainly: MBEC, MBEC Inoculation Tray by Innovotech (to 10^2 CFU/peg in 24 hours). The assay is classed as cell-based, Acinetobacter baumannii. The conditions noted are these: Table 3B titled MICs, group head missing, values match MBEC; for MIC: Acinetobacter baumannii.
In the next assay the test system is MRSA biofilm. Put plainly: EBEC, high number biofilms on PEEK membranes (10^9 to 10^2 CFU/PEEK membrane in 24 hours). It is filed as cell-based, methicillin-resistant Staphylococcus aureus. The conditions noted are these: for EBEC, MRSA: Table 4. As to the method:
In addition to determining the MIC and the MBEC of polyamine compounds against planktonic bacteria and low number biofilms, our group wanted to determine the efficacy of polyamine compounds against high number biofilms. To do so, biofilms were grown on the surface of polyetheretherketone (PEEK) membranes using a membrane biofilm reactor. This reactor is similar to the CDC biofilm reactor, but rather than growing biofilms on coupon surfaces, the reactor was modified to hold PEEK membranes. In short, to grow biofilms within this system, 500 mL of brain heart infusion (BHI) broth were inoculated with 1 mL of a 0.5 McFarland. The reactor was placed on a hot plate set at 34° C. and the bacteria were grown under batch conditions for 24 hours. Following this protocol, biofilms typically grow to 10^9 CFU/PEEK membrane. […] A solution of 10% BHI was then flowed through the reactor at a rate of 6.94 mL/min for an additional 24 hours. PEEK membranes were then removed and placed into 2 mL of CAMHB that contained a desired concentration of polyamine compound or antibiotic. The EBEC was defined as the concentration of antimicrobial required to reduce a biofilm from approximately 10^9 CFU/PEEK membrane to approximately 10^2 CFU/PEEK membrane in a 24-hour period.
In addition to determining the MIC and the MBEC of compounds against planktonic bacteria and low number biofilms, the efficacy of the compounds of the invention against high number biofilms is determined. To do so, biofilms are grown on the surface of PEEK membranes using a membrane biofilm reactor (Williams, D. L., Haymond, B. S. & Bloebaum, R. D. Use of delrin plastic in a modified CDC biofilm reactor. Res J Microbiol 6, 425-429 (2011); Williams, D. L., Woodbury, K. L., Haymond, B. S., Parker, A. E. & Bloebaum, R. D. A modified CDC biofilm reactor to produce mature biofilms on the surface of PEEK membranes for an in vivo animal model application. Curr Microbiol 62, 1657-1663 (2011); Williams, D. L. et al., In Vivo Efficacy of a Silicone—Cationic Steroid Antimicrobial Coating to Prevent Implant-Related Infection. Biomaterials 33, 8641-8656 (2012); Williams, D. L. et al., Experimental model of biofilm implant-related osteomyelitis to test combination biomaterials using biofilms as initial inocula. J Biomed Mat Res A 100, 1888-1900 (2012)). This reactor is similar to the CDC biofilm reactor, but rather than growing biofilms on coupon surfaces, the reactor was modified to hold PEEK membranes. In short, to grow biofilms within this system, 500 mL of brain heart infusion (BHI) broth is inoculated with 1 mL of a 0.5 McFarland. The reactor is placed on a hot plate set at 34° C. and the bacteria grown under batch conditions for 24 hours. A solution of 10% BHI will then be flowed through the reactor at a rate of 6.94 mL/min for an additional 24 hours. Following this protocol, biofilms typically grow to 10^9 CFU/PEEK membrane. PEEK membranes is removed and placed into 2 mL of CAMHB that contain a desired concentration of the test compound. The EBEC is defined as the concentration of antimicrobial required to reduce a biofilm from approximately 10^9 CFU/PEEK membrane to approximately 10^2 CFU/PEEK membrane in a 24-hour period.
EBEC data were collected to determine the efficacy of CZ-52, CZ-58 and traditional antibiotics against high number biofilms containing approximately 10^9 CFU grown on the surface of a polyetheretherketone (PEEK) membrane.

[1] abbreviates: Acinetobacter baumannii, Table 4.
Where [2] appears, read: Acinetobacter baumannii, Table 3A.

In brackets after ≈: the same amount, converted by molar mass. Several values for one entry are separate records, joined by “and”; a condition that tells them apart may be missing. Identical values can stand only once. Bounds are passed on as bounds.

For the compound “Polymyxin B sulfate [reference compound]”, the “MIC, A. baumannii” value in the assay on A. baumannii (Table 3A) amounted to 2 mg/L; against A. baumannii (Table 4), 1 mg/L; with A. baumannii biofilm, 50 mg/L. The MIC in the assay on A. baumannii (Table 4) amounted to 0.7 µM.

Take `NCCCNCCCNCc1cc(CNCCCNCCCN)cc(-c2ccccc2)c1` [CZ-58]: the MIC against A. baumannii (setting [1]) was 30 µg/mL and 68 µM. In addition, the “EBEC, MRSA” value with MRSA biofilm is 1,500 μg/mL and 3,403 μM.

On to `NCCCNCCCNCc1cccc(CNCCCNCCCN)c1` [CZ-25], for which the MIC against A. baumannii (setting [2]) is 150 mg/L; against A. baumannii (setting [1]), 150 µg/mL and 411 µM; in the assay with A. baumannii biofilm it was 450 mg/L (≈ 1230 µM). Moreover, the “EBEC, MRSA” value in the assay on MRSA biofilm is > 5,000 μg/mL and 13,715 μM.

Turning to `NCCCNCCCNCc1cc(CNCCCNCCCN)cc(CNCCCNCCCN)c1` [CZ-52], the MIC in the assay on A. baumannii (setting [2]) was around 25 mg/L; in the assay on A. baumannii (setting [1]), 400 µg/mL and 800 µM; with A. baumannii biofilm, 300 mg/L (≈ 591 µM). In the assay on MRSA biofilm, the “EBEC, MRSA” value was 250 μg/mL and 500 μM. Also, the “reduction of MRSA biofilms” value with MRSA biofilm (at 250 μg/mL, 24-hour period) is on record as “greater than 7 log10 units”.
